Assay results reported in patent publication US7973014B2, “Medicinal composition containing ginseng secondary glycosides, its preparation method and application” (National Institute of Pharmaceutical R&D Co., Ltd., priority 2005, dated 2011).
Where two headings read alike, the source gives them in different places. Marks after values point to notes of the source that are not given here.

Experiments:
[1] = oral administration, human body; cited from earlier work
[2] = tested on: platelets; conditions: cited from earlier work
[3] = tested on: cancer cells; conditions: cited from earlier work
[4] = tested on: coronary blood flow in experimental myocardial ischemia dogs; assay: Coronary blood flow in experimental myocardial ischemia dogs; assay type: in vivo, dog; conditions: 5 mg/kg
Procedure: (§1) Test dogs were divided into the following 8 groups, 6 dogs per group: (1) blank control group, 3 ml/kg physiological saline; (2) 5 mg/kg Diltiazem group; (3) 200 mg/kg “Di'ao Xinxuekang” group; (4) 200 mg/kg ginseng root total ginsenosides (briefly referred as root total ginsenosides) group; (5) 200 mg/kg ginseng stem/leave total ginsenosides (briefly referred as stem/leave total ginsenosides) group; (6) 25 mg/kg total secondary ginsenosides group; (7) 50 mg/kg total secondary ginsenosides group; and (8) 100 mg/kg total secondary ginsenosides group. All test drugs were formulated with distilled water to have the same volume (3 ml/kg), and were administered through duodenum.
(§2) Animals each was anesthetized with sodium pentobarbital (30 mg/kg), operated to form pericardium bed; left circumflex artery was separated, an electromagnetic flow meter probe was placed therein to measure cardiac coronary blood flow (CCBF); middle section of anterior descending coronary artery was separated, braided for ligation to create an experimental acute myocardial ischemia model; a multipoint fixed epicardial lead was sutured and connected with a multichannel electrophysiolograph to record epicardial electrogram. Coronary artery was ligated for 15 minutes, and recorded as control value before administration of drug, test drug or physiological saline was administered via duodenum, 30 mapping point epicardial electrograms were recorded at 15, 30, 45, 60, 90, 120, 180 minutes after the administration of drug, and the degree of myocardial ischemia (Σ-ST, total increase of mv number in S-T section) and the range of myocardial ischemia (N-ST, total increase of point numberin S-T section) were calculated. Blood samples were taken at orifice of coronary sinus vein by cannulation via external jugular vein before ischemia, at 15 minutes after ischemia (before administration of drug), and at 0, 30, 60, 90, 120, 180 minutes after administration of drug, the contents of oxygen in the coronary venous blood were measured by oxyhemograph; cannulation was made to common carotid artery, where the contents of […] in the arterial blood were measured, which together with coronary blood flow were used to calculate myocardial oxygen consumption (MOC). Blood samples were taken at the abovementioned time points to measure the levels of serum creatine kinase (CK) and lactic acid dehydrogenase (LDH); and the levels of blood plasma endothelin (ET), thromboxane B2 (TXB2) and 6-keto-prostaglandin F1a (6-Keto-PGF1a) were measured by an automatic γ-counter radioimmunologically.

[5] = tested on: rat arrhythmia induced by BaCl2; assay: Arrhythmia induced by BaCl2 in rats; assay type: in vivo; conditions: 50 mg/kg
Procedure: 70 SD rats, including half male and half female, were randomly divided into: control group, Diltiazem group, 200 mg/kg Di'ao Xinxuekang group, 200 mg/kg the root total ginsenosides group, and 200, 100, 50, 25 mg/kg dosage groups of the total secondary ginsenosides. On the 7th day of administration of drug, 30 minutes after the administration of drug, each of the rats was anesthetized by intraperitoneal injection of 300 mg/kg 10% chloral hydrate, fixed in supine position on rat bench. The chart speed was set at 50 mm/s, and the sensitivity was set at 20 mm/mv. After printing under standard voltage, normal II Lead electrocardiogram was recorded for a certain period, then the rat was administered with 4 mg/kg barium chloride via sublingual vein and observed immediately to record the electrocardiograms at 1, 5, 10, 15, 20, 25, 30 minutes after the administration of barium chloride. The heart rate was calculated and compared with the reference value before administration, and the onset time and time period of arrhythmia were compared as well. The incidence rates of ventricular premature beat (VP), ventricular tachycardia (VT) and ventricular fibrillation (VF) were calculated.

[6] = tested on: acute myocardial infarction in dogs; assay: Range of acute myocardial infarction in dogs, N-BT staining; assay type: in vivo, dog; conditions: 5 mg/kg
Procedure: as §1
Recording was completed at 180 minutes after administration of drug, heart was taken out immediately, cardiac ventricle was cross-sectioned parallel to coronary sulcus under heart ligature to form 5 slices, which were placed in N-BT staining solution and stained at room temperature for 15 minutes. Infarction zone (N-BT non-staining zone) and non-infarction zone (N-BT staining zone) at both sides of each slice of cardiac muscle were measured by using a multimedia color pathologic image analysis system to calculate the area of each slice of cardiac muscle, the total area of the cardiac ventricle and the total area of the infarction zones. The percentages of infarction zones based on the cardiac ventricle and on the whole heart were calculated.
(§3) The test results were statistically analyzed, and t-test was used to determine the significance.

[7] = tested on: thrombosis in experimental rat jugular arteriovenous bypass; assay: Thrombosis in rat jugular arteriovenous bypass; assay type: in vivo; conditions: for inhibition at 50 mg/kg: Rattus norvegicus
Procedure: 70 Rats, half male and half female, weighting 250-300 g, were randomly divided into 7 groups, 10 rats per group, and fed for one week in advance. The said 7 groups included high, middle and low dosage groups of the total secondary ginsenosides (200, 100 and 50 mg/kg), and control groups: Diltiazem group (50 mg/kg), Di'ao Xinxuekang group (200 mg/kg), root total ginsenosides group (200 mg/kg) and blank control group (water). administered All the drugs and controls were administered through intragastrical perfusion for 7 days.
Measurement of the rate for inhibition of thrombosis: on the 7th day after administration of drug, 30 minutes after the administration, each of rats was anesthetized with sodium pentobarbital, the left external jugular vein and right common carotid artery were separated, three segments of polyethylene tubes were used to form cannula, and then 5 cm weighed 4-suture was placed in the middle segment. These polyethylene tubes were filled with heparin-physiological saline (50 U/ml). When one end of the tube was inserted into the external jugular vein, one end of the tube was clamped and the end fixed by suture was inserted into the right common carotid artery. After this operation, bleeding was performed immediately and then stopped 15 minutes later, the suture was taken out quickly and weighed. The wet weight of thrombus was calculated by subtracting the suture weight from the total weight. The thrombosis inhibition rate was calculated according to the following formula. Inhibition rate (%)=[(Thrombus weight of the control group)−(Thrombus weight of the group administered with drug)]/(Thrombus weight of the control group)×100% Results: […]

[8] = tested on: acute myocardial ischemia induced by coronary artery ligation in anesthetized dogs; assay: Myocardial ischemia induced by coronary artery ligation in anesthetized dogs, epicardial electrogram mapping; assay type: in vivo, dog; conditions: 5 mg/kg
Procedure: as §1, §2, §3

[9] = target: thrombin (Homo sapiens, UniProt P00734); conditions: cited from earlier work

For `CC(C)=CCC[C@](C)(O[C@@H]1O[C@H](CO[C@@H]2O[C@H](CO)[C@@H](O)[C@H](O)[C@H]2O)[C@@H](O)[C@H](O)[C@H]1O)[C@H]1CC[C@]2(C)[C@@H]1[C@H](O)C[C@@H]1[C@@]3(C)CC[C@H](O[C@@H]4O[C@H](CO)[C@@H](O)[C@H](O)[C@H]4O[C@@H]4O[C@H](CO)[C@@H](O)[C@H](O)[C@H]4O)C(C)(C)[C@@H]3CC[C@]12C` [ginsenoside-Rb1], the absorption rate [1] is listed as 1%.

In the case of `CC(C)=CCC[C@](C)(O)[C@H]1CC[C@]2(C)[C@@H]1[C@H](O)C[C@@H]1[C@@]3(C)CC[C@H](O[C@@H]4O[C@H](CO)[C@@H](O)[C@H](O)[C@H]4O[C@@H]4O[C@H](CO)[C@@H](O)[C@H](O)[C@H]4O)C(C)(C)[C@@H]3CC[C@]12C` [Ginsenoside Rg3], the “platelet aggregation induced by collagen or ADP” value [2] is listed as “relatively strong inhibitory effects” and the anticancer activity [3] is listed as “significant anticancer activity”.

For `COc1ccc([C@@H]2Sc3ccccc3N(CCN(C)C)C(=O)[C@@H]2OC(C)=O)cc1` [Diltiazem], the coronary blood flow ([4]; 30 min after drug) was 110.36 ± 58.20 ml/100 g · min^−1, the “coronary blood flow change rate” value ([4]; 30 min after drug) was 108.70 ± 3.32 % and the coronary blood flow ([4]; 60 min after drug) was 119.11 ± 61.62 ml/100 g · min^−1. For the same molecule, the “coronary blood flow change rate” value ([4]; 60 min after drug) was 117.06 ± 5.17 %, the coronary blood flow ([4]; 90 min after drug) was 122.97 ± 64.44 ml/100 g · min^−1 and the “coronary blood flow change rate” value ([4]; 90 min after drug) was 120.06 ± 7.27 %. The coronary blood flow ([4]; 120 min after drug) was 119.15 ± 65.51 ml/100 g · min^−1, the “coronary blood flow change rate” value ([4]; 120 min after drug) was 116.97 ± 7.33 % and the coronary blood flow ([4]; 180 min after drug) was 112.10 ± 60.59 ml/100 g · min^−1. For the same molecule, the “coronary blood flow change rate” value ([4]; 180 min after drug) was 112.21 ± 6.46 %, the coronary blood flow ([4]; after ischemia before drug) was 101.82 ± 54.71 ml/100 g · min^−1 and the “coronary blood flow change rate” value ([4]; after ischemia before drug) was 110.34 ± 4.17%. For the same molecule, the coronary blood flow ([4]; before ischemia (normal value)) was 92.07 ± 46.98 ml/100 g · min^−1, the Duration of arrhythmia [5] was 13.2 ± 6.0 min and the “Incidence rate of VF” value [5] was 0* %. For the same molecule, the “Onset time of VP” value [5] was 15.0 ± 10.8 s, the “Onset time of VT” value [5] was 20 ± 8.8 s and the Heart rate ([5]; 5 min after BaCl2) was 327 ± 64 beat/min. The Heart rate ([5]; 10 min after BaCl2) was 360 ± 88 beat/min, the Heart rate ([5]; 20 min after BaCl2) was 381 ± 71 beat/min and the Heart rate ([5]; 30 min after BaCl2) was 399 ± 42 beat/min. For the same molecule, the Heart rate ([5]; before BaCl2) was 397 ± 53 beat/min, the Infarction zone area [6] was 266.25 ± 63.4*** mm^2 and the Infraction zone/cardiac ventricle [6] was 5.36 ± 1.70. For the same molecule, the Infraction zone/heart [6] was 2.27 ± 0.83, the “Wet weight of thrombus” value ([7]; 50 mg/kg intragastric, 7 days) was 0.0200 ± 0.005 g and the inhibition at 50 mg/kg ([7]; po, 168 h, 50 mg/kg intragastric, 7 days, read-out: Inhibition rate) was 32.9%. For the same molecule, the inhibition at 50 mg/kg ([7]; 50 mg/kg, read-out: inhibition rate of thrombosis) was 33%, the N-ST change rate ([8]; 15 min after drug) was 89.60 ± 8.40 % and the “acute myocardial ischemia (N-ST)” value ([8]; 15 min after drug) was 24.83 ± 2.04. The “degree of acute myocardial ischemia (Σ-ST)” value (from here on “degree”) ([8]; 15 min after drug) was 182.00 ± 70.40 mv, the Σ-ST change rate ([8]; 15 min after drug) was 61.01 ± 20.89 % and the N-ST change rate ([8]; 30 min after drug) was 89.53 ± 15.49%. For the same molecule, the “acute myocardial ischemia (N-ST)” value ([8]; 30 min after drug) was 25.33 ± 4.08, the “degree” value ([8]; 30 min after drug) was 149.83 ± 41.36 mv and the Σ-ST change rate ([8]; 30 min after drug) was 48.75 ± 9.99 %. The N-ST change rate ([8]; 45 min after drug) was 86.82 ± 14.83%, the “acute myocardial ischemia (N-ST)” value ([8]; 45 min after drug) was 23.17 ± 5.91 and the “degree” value ([8]; 45 min after drug) was 126.00 ± 47.35 mv. For the same molecule, the Σ-ST change rate ([8]; 45 min after drug) was 42.43 ± 8.97 %, the N-ST change rate ([8]; 60 min after drug) was 87.48 ± 15.08% and the “acute myocardial ischemia (N-ST)” value ([8]; 60 min after drug) was 23.50 ± 4.85. For the same molecule, the “degree” value ([8]; 60 min after drug) was 148.67 ± 71.87 mv, the Σ-ST change rate ([8]; 60 min after drug) was 47.78 ± 10.82 % and the N-ST change rate ([8]; 90 min after drug) was 81.41 ± 14.31 %. For the same molecule, the “acute myocardial ischemia (N-ST)” value ([8]; 90 min after drug) was 21.50 ± 5.86, the “degree” value ([8]; 90 min after drug) was 140.17 ± 63.46 mv and the Σ-ST change rate ([8]; 90 min after drug) was 54.98 ± 18.57 %. The N-ST change rate ([8]; 120 min after drug) was 77.22 ± 16.49 %, the “acute myocardial ischemia (N-ST)” value ([8]; 120 min after drug) was 20.00 ± 6.00 and the “degree” value ([8]; 120 min after drug) was 139.00 ± 69.20 mv. The Σ-ST change rate ([8]; 120 min after drug) was 52.21 ± 19.91 %, the N-ST change rate ([8]; 180 min after drug) was 75.89 ± 19.59 % and the “acute myocardial ischemia (N-ST)” value ([8]; 180 min after drug) was 20.67 ± 5.99. The “degree” value ([8]; 180 min after drug) was 117.17 ± 54.27 mv, the Σ-ST change rate ([8]; 180 min after drug) was 45.99 ± 18.90 % and the “acute myocardial ischemia (N-ST)” value ([8]; before drug) was 28.67. The “degree” value ([8]; before drug) was 291.00 ± 40.39 mv.

For `CC(C)=CCC[C@](C)(O)[C@H]1CC[C@]2(C)[C@@H]1[C@H](O)C[C@@H]1[C@@]3(C)CC[C@H](O[C@@H]4O[C@H](CO)[C@@H](O)[C@H](O)[C@H]4O)C(C)(C)[C@@H]3CC[C@]12C` [Rh2, ginsenoside Rh2], the anticancer activity [3] is listed as “significant anticancer activity”.

In the case of `CC(C)=CCC[C@](C)(O)[C@H]1CC[C@]2(C)[C@@H]1[C@H](O)C[C@@H]1[C@@]3(C)CC[C@H](O)C(C)(C)[C@@H]3[C@@H](O[C@@H]3O[C@H](CO)[C@@H](O)[C@H](O)[C@H]3O)C[C@]12C` [Ginsenoside Rh1], the “conversion of fibrinogen to fibrin induced by thrombin” value [9] is listed as “significant inhibitory effects” and the anticancer activity [3] is listed as “significant anticancer activity”.
